Experimental data reported in patent publication US8119116B2, “Therapeutics for cancer using 3-bromopyruvate and other selective inhibitors of ATP production” (John Hopkins University School of Medicine, priority 2001, dated 2012).
Each block holds one compound with its values, some of them ahead of it.

Experiments:
VX2 tumor slices = test: Glycolysis (lactic acid formation) in VX2 tumor slices; assay type: cell-based, rabbit; conditions: for inhibition of VX2 tumor glycolysis in the limited screen: 6 mM agent, 6 mM glucose, 37° C., 5 h
Protocol: Glycolysis was assayed by monitoring the formation of lactic acid following the addition of glucose to a medium containing VX2 tumor slices. Specifically, freshly excised tumors were washed 3 times at 4° C. in 20 ml Chance Hess Medium containing 6.2 mM KCl, 154 mM NaCl, and 11 mM NaPi, pH 7.4. Slices, 1 g each, were then prior incubated for 30 min in a Lab-Line incubator-shaker at 37° C. in 2 ml of the same medium while shaking at 50 rpm. Glucose was then added to give a final concentration of 6 mM, after which the incubation/shaking process was continued with 0.2 ml samples being removed every 30 min for up to 2 h. These samples were subjected to centrifugation at 14,000 rpm in an Eppendorf Centrifuge (Model 5415C). Then, aliquots of the supernatant, 0.01 ml, were removed from each sample, diluted with 0.03 ml of water and subjected to lactic acid determination using the kit supplied by Sigma. The latter contains, in addition to lactic dehydrogenase and NAD+, hydrazine, and glycine buffer, pH 9.2. The mixture was incubated for 30 min at 25° C. after which the absorbance due to formation of NADH was determined at 340 nm using a Gilford Model 260 spectrophotometer. To assess the elevation of the glycolytic activity of the VX2 tumor over that of liver tissue, parallel studies were always carried out in an identical manner with 1 g liver slices derived from the host liver. Finally, in those cases where agents were tested for their capacity to inhibit glycolysis, these were introduced into the system at the prior incubation step with all subsequent steps being run in parallel with those described above for the VX2 tumor or liver alone.
The screen included the following 9 compounds: 2-deoxyglucose (2DOG), 2-fluoro-2-deoxyglucose, 6-fluoro-6-deoxyglucose, 3-O-methyl glucose, 5-thio-D-glucose-6-phosphate, L-glucose, D-xylose, D-lyxose, and 3-bromopyruvic acid (3BrPA). The screen was conducted by incubating VX2 tumor slices in a medium containing 6 mM glucose with 6 mM of each of these agents at 37° C. for 5 h. The use of 6 mM glucose in the medium was used to mimic the maximal amount of glucose that might be in the blood in a real in vivo situation.
With the above preliminary data at hand, only two of the 9 compounds screened were studied in more detail. One was 2DOG because under certain conditions it is known to inhibit glycolysis when it is phosphorylated by hexokinase to 2DOG-6-P which cannot be further metabolized. The other compound tested in more detail was 3BrPA because of its effectiveness as a glycolytic inhibitor in the preliminary screen.

AS-30D hepatoma cells = test: Hepatoma cell viability by trypan blue; assay type: cell-based, rat; conditions: 20 mM, 12 h
Protocol: AS-30D hepatoma cells grown in the peritoneal cavity of Sprague Dawley female rats (see Materials) were adapted to grow in tissue culture in Dulbecco's modified Eagle's medium containing 10% fetal bovine serum. Cells were maintained at 37° C. in a humidified atmosphere containing 5% CO2, and counted in a Neubauer chamber after trypan blue dye addition (cell/dye volume=1/1) by visualization under a Nikon inverted microscope.
The studies described above using the VX2 tumor model for liver cancer predict that 2DOG and 3BrPA may have the capacity to kill hepatoma cells expressing the high glycolytic/high hexokinase phenotype. […] Cell killing was assessed in these experiments by counting those cells in which trypan blue had entered.

SMILES: O=C[C@H](F)[C@@H](O)[C@H](O)[C@H](O)CO [2-fluoro-2-deoxyglucose]
inhibition of VX2 tumor glycolysis in the limited screen (VX2 tumor slices): ineffective

IC50 (VX2 tumor slices; Oryctolagus cuniculus, 0.5 h, VX2 tumor slices, agent prior incubated 30 min at 37° C., read-out: half maximal inhibition of glycolysis): ~15 mM
SMILES: O=CC[C@@H](O)[C@H](O)[C@H](O)CO [2DOG, 2-deoxyglucose]
inhibition of VX2 tumor glycolysis in the limited screen (VX2 tumor slices): ineffective | concentration for maximal or complete inhibition of glycolysis (VX2 tumor slices; VX2 tumor slices, agent prior incubated 30 min at 37° C.): ~50 mM | maximal inhibition of glycolysis (VX2 tumor slices; VX2 tumor slices, at almost 50 mM): 70% | cells killed (trypan blue uptake) (AS-30D hepatoma cells): about 80%

SMILES: CO[C@@H]([C@H](O)[C@H](O)CO)[C@@H](O)C=O [3-O-methyl glucose]
inhibition of VX2 tumor glycolysis in the limited screen (VX2 tumor slices): ineffective

SMILES: O=C[C@H](O)[C@@H](O)[C@H](O)[C@H](S)COP(=O)(O)O [5-thio-D-glucose-6-phosphate]
inhibition of VX2 tumor glycolysis in the limited screen (VX2 tumor slices): ineffective

SMILES: O=C[C@H](O)[C@@H](O)[C@H](O)[C@H](O)CF [6-fluoro-6-deoxyglucose]
inhibition of VX2 tumor glycolysis in the limited screen (VX2 tumor slices): ineffective

SMILES: O=C[C@@H](O)[C@@H](O)[C@H](O)CO [D-lyxose]
inhibition of VX2 tumor glycolysis in the limited screen (VX2 tumor slices): ineffective

SMILES: O=C[C@H](O)[C@@H](O)[C@H](O)CO [D-xylose]
inhibition of VX2 tumor glycolysis in the limited screen (VX2 tumor slices): ineffective

SMILES: O=C[C@@H](O)[C@H](O)[C@@H](O)[C@@H](O)CO [L-glucose]
inhibition of VX2 tumor glycolysis in the limited screen (VX2 tumor slices): ineffective
